Measurements: patent US8642590B2, “Alkylcyclohexylethers of dihydrotetraazabenzoazulenes” (Hoffmann-La Roche Inc., priority 2008, dated 2014)
Counter-ions that a name gives are not always drawn. Like-named read-outs stand apart in the source and are kept apart here.

Biological target: T1, human V1a receptor (Homo sapiens, UniProt P37288)
T1 construct: expressed in transfected cells; host or cells: HEK293 cells, transiently transfected; cell membranes prepared
Test: human V1a receptor binding study (3H-Vasopressin, SPA beads, HEK293 membranes)
Protocol: The human V1a receptor was cloned by RT-PCR from total human liver RNA. The coding sequence was subcloned in an expression vector after sequencing to confirm the identity of the amplified sequence. […] Cell membranes were prepared from HEK293 cells transiently transfected with the expression vector and grown in 20 liter fermenters with the following protocol.
50 g of cells are resuspended in 30 ml freshly prepared ice cold Lysis buffer (50 mM HEPES, 1 mM EDTA, 10 mM magnesium dichloride adjusted to pH=7.4+complete cocktail of protease inhibitor (Roche Diagnostics)). Homogenized with Polytron for 1 min and sonicated on ice for 2×2 minutes at 80% intensity (Vibracell sonicator). The preparation is centrifuged 20 min at 500 g at 4° C., the pellet is discarded and the supernatant centrifuged 1 hour at 43,000 g at 4° C. (19,000 rpm). The pellet is resuspended in 12.5 ml Lysis buffer+12.5 ml Sucrose 20% and homogenized using a Polytron for 1-2 min. The protein concentration is determined by the Bradford method and aliquots are stored at −80° C. until use. For binding studies 60 mg Yttrium silicate SPA beads (Amersham) are mixed with an aliquot of membrane in binding buffer (50 mM Tris, 120 mM sodium chloride, 5 mM potassium chloride, 2 mM Calcium dichloride, 10 mM magnesium dichloride) for 15 minutes with mixing. 50 μl of bead/membrane mixture is then added to each well of a 96 well plate, followed by 50 μl of 4 nM 3H-Vasopressin (American Radiolabeled Chemicals). For total binding measurement 100 μl of binding buffer are added to the respective wells, for non-specific binding 100 μl of 8.4 mM cold vasopressin and for compound testing 100 μl of a serial dilution of each compound in 2% dimethyl sulfoxide. The plate is incubated 1 h at room temperature, centrifuged 1 min at 1000 g and counted on a Packard Top-Count. Non-specific binding counts are subtracted from each well and data is normalized to the maximum specific binding set at 100%. To calculate an IC 50 the curve is fitted using a non-linear regression model (XLfit) and the Ki is calculated using the Cheng-Prussoff equation.

[1] = membranes of HEK293 cells transiently transfected with human V1a receptor, 3H-Vasopressin, Ki calculated using the Cheng-Prussoff equation, read-out: pKi (hV1a) (converted)

T1 sequence (P37288 whole entry): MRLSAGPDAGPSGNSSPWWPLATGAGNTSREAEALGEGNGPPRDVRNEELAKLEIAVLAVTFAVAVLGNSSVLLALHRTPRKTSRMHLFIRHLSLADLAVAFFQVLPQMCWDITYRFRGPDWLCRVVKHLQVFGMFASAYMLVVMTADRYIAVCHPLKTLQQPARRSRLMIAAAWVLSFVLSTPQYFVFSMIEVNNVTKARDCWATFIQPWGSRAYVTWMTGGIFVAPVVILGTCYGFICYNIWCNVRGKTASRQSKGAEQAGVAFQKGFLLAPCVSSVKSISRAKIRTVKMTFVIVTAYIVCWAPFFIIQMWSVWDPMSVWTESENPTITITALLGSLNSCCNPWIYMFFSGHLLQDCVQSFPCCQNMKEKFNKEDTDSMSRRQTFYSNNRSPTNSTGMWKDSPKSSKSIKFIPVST

SMILES	Ki [1] [nM]	Ki [nM]
CCC(C)O[C@H]1CC[C@H](c2nnc3n2-c2ccc(Cl)cc2CNC3)CC1 (mixture of isomers) [Example 26, (RS)-trans-1-(4-sec-Butoxy-cyclohexyl)-8-chloro-5,6-dihydro-4H-2,3,5,10b-tetraaza-benzo[e]azulene hydrochloride]	12.6	–
CC(C)O[C@H]1CC[C@H](c2nnc3n2-c2ccc(Cl)cc2CN(C(C)C)C3)CC1 [Example 13, trans-8-Chloro-1-(4-isopropoxy-cyclohexyl)-5-isopropyl-5,6-dihydro-4H-2,3,5,10b-tetraaza-benzoazulene]	1.51	–
CC(C)O[C@H]1CC[C@H](c2nnc3n2-c2ccc(Cl)cc2CN(CCO)C3)CC1 [Example 12, trans-2-[8-Chloro-1-(4-isopropoxy-cyclohexyl)-4H,6H-2,3,5,10b-tetraaza-benzoazulen-5-yl]-ethanol]	2.29	–
CC(C)O[C@H]1CC[C@H](c2nnc3n2-c2ccc(F)cc2CN(C)C3)CC1 [Example 21, trans-8-Fluoro-1-(4-isopropoxy-cyclohexyl)-5-methyl-5,6-dihydro-4H-2,3,5,10b-tetraaza-benzo[e]azulene]	29.5	–
CC(=O)N1Cc2cc(Cl)ccc2-n2c(nnc2[C@H]2CC[C@H](OC(C)C)CC2)C1 [Example 18, trans-1-[8-Chloro-1-(4-isopropoxy-cyclohexyl)-4H,6H-2,3,5,10b-tetraaza-benzoazulen-5-yl]-ethanone]	2.51	–
CC(CO)O[C@H]1CC[C@H](c2nnc3n2-c2ccc(Cl)cc2CN(C(=O)OC(C)(C)C)C3)CC1 (mixture of isomers) [Example 50, (RS)-trans-8-Chloro-1-[4-(2-hydroxy-1-methyl-ethoxy)-cyclohexyl]-4H,6H-2,3,5,10b-tetraaza-benzo[e]azulene-5-carboxylic acid tert-butyl ester]	2.69	–
CC(CF)O[C@H]1CC[C@H](c2nnc3n2-c2ccc(Cl)cc2CN(C)C3)CC1 (mixture of isomers) [Example 53, (RS)-trans-8-Chloro-1-[4-(2-fluoro-1-methyl-ethoxy)-cyclohexyl]-5-methyl-5,6-dihydro-4H-2,3,5,10b-tetraaza-benzo[e]azulene]	2.82	–
CN1Cc2cc(Cl)ccc2-n2c(nnc2[C@H]2CC[C@H](OC3CCCC3)CC2)C1 [Example 38, trans-8-Chloro-1-(4-cyclopentyloxy-cyclohexyl)-5-methyl-5,6-dihydro-4H-2,3,5,10b-tetraaza-benzo[e]azulene]	0.794	–
CC(C)O[C@H]1CC[C@H](c2nnc3n2-c2ccc(Cl)cc2CN(C(=O)OC(C)(C)C)C3)CC1 [Example 8, trans-8-Chloro-1-(4-isopropoxy-cyclohexyl)-4H,6H-2,3,5,10b-tetraaza-benzo[e]azulene-5-carboxylic acid tert-butyl ester]	1.29	–
CN1Cc2cc(Cl)ccc2-n2c(nnc2[C@H]2CC[C@H](OC3CCC3)CC2)C1 [Example 32, trans-8-Chloro-1-(4-cyclobutoxy-cyclohexyl)-5-methyl-5,6-dihydro-4H-2,3,5,10b-tetraaza-benzo[e]azulene]	1.29	–
CC(C)O[C@H]1CC[C@H](c2nnc3n2-c2ccc(Cl)cc2CN(C(=O)CO)C3)CC1 [Example 17, trans-1-[8-Chloro-1-(4-isopropoxy-cyclohexyl)-4H,6H-2,3,5,10b-tetraaza-benzoazulen-5-yl]-2-hydroxy-ethanone]	3.47	–
CC(CC(F)(F)F)O[C@H]1CC[C@H](c2nnc3n2-c2ccc(Cl)cc2CNC3)CC1 (mixture of isomers) [Example 55, (RS)-trans-8-Chloro-1-[4-(3,3,3-trifluoro-1-methyl-propoxy)-cyclohexyl]-5,6-dihydro-4H-2,3,5,10b-tetraaza-benzo[e]azulene hydrochloride]	75.9	–
Clc1ccc2c(c1)CNCc1nnc([C@H]3CC[C@H](OC4CCCC4)CC3)n1-2 [Example 37, trans-8-Chloro-1-(4-cyclopentyloxy-cyclohexyl)-5,6-dihydro-4H-2,3,5,10b-tetraaza-benzo[e]azulene hydrochloride]	3.47	–
COCC(C)O[C@H]1CC[C@H](c2nnc3n2-c2ccc(Cl)cc2CN(C(=O)OC(C)(C)C)C3)CC1 (mixture of isomers) [Example 45, (RS)-trans-8-Chloro-1-[4-(2-methoxy-1-methyl-ethoxy)-cyclohexyl]-4H,6H-2,3,5,10b-tetraaza-benzo[e]azulene-5-carboxylic acid tert-butyl ester]	3.72	–
CC[C@H](C)O[C@H]1CC[C@H](c2nnc3n2-c2ccc(Cl)cc2CN(C)C3)CC1 (single isomer, unassigned) [Example 28, (+)-trans-1-(4-sec-Butoxy-cyclohexyl)-8-chloro-5-methyl-5,6-dihydro-4H-2,3,5,10b-tetraaza-benzo[e]azulene]	1.58	–
CC(C)O[C@H]1CC[C@H](c2nnc3n2-c2ccc(F)cc2CNC3)CC1 [Example 20, trans-8-Fluoro-1-(4-isopropoxy-cyclohexyl)-5,6-dihydro-4H-2,3,5,10b-tetraaza-benzo[e]azulene hydrochloride]	251	–
CC(C)(C)OC(=O)N1Cc2cc(Cl)ccc2-n2c(nnc2[C@H]2CC[C@H](OC3CCC3)CC2)C1 [Example 30, trans-8-Chloro-1-(4-cyclobutoxy-cyclohexyl)-4H,6H-2,3,5,10b-tetraaza-benzo[e]azulene-5-carboxylic acid tert-butyl ester]	–	2.82
Clc1ccc2c(c1)CNCc1nnc([C@H]3CC[C@H](OC4CCC4)CC3)n1-2 [Example 31, trans-8-Chloro-1-(4-cyclobutoxy-cyclohexyl)-5,6-dihydro-4H-2,3,5,10b-tetraaza-benzo[e]azulene hydrochloride]	10.7	–
Clc1ccc2c(c1)CNCc1nnc([C@H]3CC[C@H](OC4CCCCC4)CC3)n1-2 [Example 40, trans-8-Chloro-1-(4-cyclohexyloxy-cyclohexyl)-5,6-dihydro-4H-2,3,5,10b-tetraaza-benzoazulene hydrochloride]	34.7	–
CC(C)O[C@H]1CC[C@H](c2nnc3n2-c2ccc(F)cc2CN(C(=O)OC(C)(C)C)C3)CC1 [Example 19, trans-8-Fluoro-1-(4-isopropoxy-cyclohexyl)-4H,6H-2,3,5,10b-tetraaza-benzo[e]azulene-5-carboxylic acid tert-butyl ester]	3.8	–
CC(C)O[C@H]1CC[C@@H](c2nnc3n2-c2ccc(Cl)cc2CNC3)CC1 [Example 23, cis-8-Chloro-1-(4-isopropoxy-cyclohexyl)-5,6-dihydro-4H-2,3,5,10b-tetraaza-benzo[e]azulene hydrochloride]	363	–
CCC(C)O[C@H]1CC[C@H](c2nnc3n2-c2ccc(Cl)cc2CN(C)C3)CC1 (mixture of isomers) [Example 27, (RS)-trans-1-(4-sec-Butoxy-cyclohexyl)-8-chloro-5-methyl-5,6-dihydro-4H-2,3,5,10b-tetraaza-benzo[e]azulene]	2.09	–
COCC(C)O[C@H]1CC[C@H](c2nnc3n2-c2ccc(Cl)cc2CN(C)C3)CC1 (mixture of isomers) [Example 47, (RS)-trans-8-Chloro-1-[4-(2-methoxy-1-methyl-ethoxy)-cyclohexyl]-5-methyl-5,6-dihydro-4H-2,3,5,10b-tetraaza-benzo[e]azulene]	11.2	–
CC(C)O[C@H]1CC[C@H](c2nnc3n2-c2ccc(Cl)cc2CNC3)CC1 [Example 9, trans-8-Chloro-1-(4-isopropoxy-cyclohexyl)-5,6-dihydro-4H-2,3,5,10b-tetraaza-benzo[e]azulene hydrochloride]	17.4	–
CC(CC(F)(F)F)O[C@H]1CC[C@H](c2nnc3n2-c2ccc(Cl)cc2CN(C(=O)OC(C)(C)C)C3)CC1 (mixture of isomers) [Example 54, (RS)-trans-8-Chloro-1-[4-(3,3,3-trifluoro-1-methyl-propoxy)-cyclohexyl]-4H,6H-2,3,5,10b-tetraaza-benzo[e]azulene-5-carboxylic acid tert-butyl ester]	8.51	–
CC(C)(C)OC(=O)N1Cc2cc(Cl)ccc2-n2c(nnc2[C@H]2CC[C@@H](OC3CCC3)CC2)C1 [Example 33, cis-8-Chloro-1-(4-cyclobutoxy-cyclohexyl)-4H,6H-2,3,5,10b-tetraaza-benzo[e]azulene-5-carboxylic acid tert-butyl ester]	–	7.59
CC(CO)O[C@H]1CC[C@H](c2nnc3n2-c2ccc(Cl)cc2CN(C)C3)CC1 (mixture of isomers) [Example 52, (RS)-trans-2-[4-(8-Chloro-5-methyl-5,6-dihydro-4H-2,3,5,10b-tetraaza-benzo[e]azulen-1-yl)-cyclohexyloxy]-propan-1-ol]	19.1	–
CO[C@H]1CC[C@@H](c2nnc3n2-c2ccc(Cl)cc2CN(C)C3)CC1 [Example 1, cis-8-Chloro-1-(4-methoxy-cyclohexyl)-5-methyl-5,6-dihydro-4H-2,3,5,10b-tetraaza-benzo[e]azulene]	93.3	–
